Assay results: patent US20250214962A1, “PYRIDINONE DERIVATIVES AS SELECTIVE CYTOTOXIC AGENTS AGAINST HIV INFECTED CELLS” (Merck Sharp & Dohme LLC, priority 2019, published 2025)
Like-named read-outs stand apart in the source and are kept apart here.

Key:
[1] = tested on: infected PBMCs (VSV-G pseudotyped HIV virus); experiment: cells; assay type: cell-based, human; settings: read-out: SMACK EC50_50% NHS
[2] = Viking EC50, 50% NHS; assay type: cell-based; settings: method not described, read-out: Viking EC50_50% NHS

Row | Compound | EC50 ([1]; Homo sapiens, PBMC) | EC50 [2] | EC50 [1]
1 | Cc1c(C#N)cc(C(F)F)cc1Oc1c(C(F)(F)C(F)F)ncn(Cc2cc(Br)c[nH]c2=O)c1=O [Example 11, 3-((1-((5-bromo-2-oxo-1,2-dihydropyridin-3-yl)methyl)-6-oxo-4-(1,1,2,2-tetrafluoroethy)-1,6-dihydropyrimidin-5-yl)oxy)-5-(difluoromethyl)-2-methylbenzonitrile] | 402 nM |  | 
2 | N#Cc1cc(Cl)cc(Oc2c(C(F)(F)F)ncn(Cc3cc(F)c[nH]c3=O)c2=O)c1F [Example 37, 5-chloro-2-fluoro-3-((1-((5-fluoro-2-oxo-1,2-dihydropyridin-3-yl)methyl)-6-oxo-4-(trifluoromethyl)-1,6-dihydropyrimidin-5-yl)oxy)benzonitrile] | 413 nM | 32.4 nM | 
3 | Cc1c(C#N)cc(C(F)F)cc1Oc1c(C(F)(F)C(F)F)ncn(Cc2ccc(C(C)(C)O)[nH]c2=O)c1=O [Example 29, 5-(Difluoromethyl)-3-((1-((6-(2-Hydroxypropan-2-Yl)-2-Oxo-1,2-Dihydropyridin-3-Yl)Methyl)-6-Oxo-4-(1,1,2,2-Tetrafluoroethyl)-1,6-Dihydropyrimidin-5-Yl)Oxy)-2-Methylbenzonitrile] | 187 nM | 29.8 nM | 
4 | Cc1ccc(Cn2cnc(C(F)(F)C(F)F)c(Oc3cc(F)cc(C#N)c3C)c2=O)c(=O)[nH]1 [Example 9] | 281 nM | 15.7 nM | 
5 | Cc1c(C#N)cc(C(F)F)cc1Oc1c(C(F)(F)C(F)(F)F)ncn(Cc2cc(F)c[nH]c2=O)c1=O [Example 38, 5-(difluoromethyl)-3-((1-((5-fluoro-2-oxo-1,2-dihydropyridin-3-yl)methyl)-6-oxo-4-(perfluoroethyl)-1,6-dihydropyrimidin-5-yl)oxy)-2-methylbenzonitrile] | 191 nM | 96.8 nM | 
6 | COCc1ccc(Cn2cnc(C(F)(F)C(F)F)c(Oc3cc(C(F)F)cc(C#N)c3C)c2=O)c(=O)[nH]1 [Example 26, 5-(difluoromethyl)-3-((1-((6-(methoxymethyl)-2-oxo-1,2-dihydropyridin-3-yl)methyl)-6-oxo-4-(1,1,2,2-tetrafluoroethyl)-1,6-dihydropyrimidin-5-yl)oxy)-2-methylbenzonitrile] | 90.1 nM | 29.3 nM | 
7 | Cc1cc(C)c(Cn2cnc(C(F)(F)C(F)F)c(Oc3c(C)cc(C#N)cc3C)c2=O)c(=O)[nH]1 [Example 10, 4-((1-((4,6-dimethyl-2-oxo-1,2-dihydropyridin-3-yl)methyl)-6-oxo-4-(1,1,2,2-tetrafluoroethyl)-1,6-dihydropyrimidin-5-yl)oxy)-3,5-dimethylbenzonitrile] | 246 nM |  | 
8 | Cc1ccc(Cn2cnc(C(F)(F)C(F)F)c(Oc3cc(Cl)cc(C#N)c3F)c2=O)c(=O)[nH]1 [Example 39, 5-Chloro-2-Fluoro-3-((1-((6-Methyl-2-Oxo-1,2-Dihydropyridin-3-Yl)Methyl)-6-Oxo-4-(1,1,2,2-Tetrafluoroethyl)-1,6-Dihydropyrimidin-5-Yl)Oxy)Benzonitrile] | 162 nM | 33.5 nM | 
9 | N#Cc1cc(Cl)cc(Oc2c(C(F)(F)F)ncn(Cc3ccc(-c4cn[nH]c4)[nH]c3=O)c2=O)c1 [Example 30, 3-Chloro-5-((6-Oxo-1-((2-Oxo-6-(1H-Pyrazol-4-Yl)-1,2-Dihydropyridin-3-Yl)Methyl)-4-(Trifluoromethyl)-1,6-Dihydropyrimidin-5-Yl)Oxy)Benzonitrile] | 415 nM | 30.1 nM | 
10 | Cc1cc(C)c(Cn2cnc(C(C)(F)F)c(Oc3cc(Cl)cc(C#N)c3F)c2=O)c(=O)[nH]1 [Example 2, 5-chloro-3-((4-(1,1-difluoroethyl)-1-((4,6-dimethyl-2-oxo-1,2-dihydropyridin-3-yl)methyl)-6-oxo-1,6-dihydropyrimidin-5-yl)oxy)-2-fluorobenzonitrile] | 294 nM | 37.4 nM | 
11 | Cc1cc(C)c(Cn2cnc(C(F)(F)C(F)F)c(Oc3cc(C(F)F)cc(C#N)c3C)c2=O)c(=O)[nH]1 [Example 5, 5-(difluoromethyl)-3-((1-((4,6-dimethyl-2-oxo-1,2-dihydropyridin-3-yl)methyl)-6-oxo-4-(1,1,2,2-tetrafluoroethyl)-1,6-dihydropyrimidin-5-yl)oxy)-2-methylbenzonitrile] | 161 nM | 47.1 nM | 
12 | Cc1ccc(Cn2cnc(C(F)(F)F)c(Oc3cc(Cl)cc(C#N)c3F)c2=O)c(=O)[nH]1 [Example 4, 5-chloro-2-fluoro-3-((1-((6-methyl-2-oxo-1,2-dihydropyridin-3-yl)methyl)-6-oxo-4-(trifluoromethyl)-1,6-dihydropyrimidin-5-yl)oxy)benzonitrile] | 197 nM | 41.1 nM | 
13 | Cc1ccc(Cn2cnc(C(F)(F)C(F)F)c(Oc3cc(C(F)F)cc(C#N)c3C)c2=O)c(=O)[nH]1 [Example 22, 5-(difluoromethyl)-2-methyl-3-((1-((6-methyl-2-oxo-1,2-dihydropyridin-3-yl)methyl)-6-oxo-4-(1,1,2,2-tetrafluoroethyl)-1,6-dihydropyrimidin-5-yl)oxy)benzonitrile] | 131 nM | 48.9 nM | 
14 | N#Cc1cc(Cl)cc(Oc2c(C(F)(F)F)ncn(Cc3cc(F)c[nH]c3=O)c2=O)c1Cl [Example 36, 2,5-dichloro-3-((1-((5-fluoro-2-oxo-1,2-dihydropyridin-3-yl)methyl)-6-oxo-4-(trifluoromethyl)-1,6-dihydropyrimidin-5-yl)oxy)benzonitrile] | 369 nM | 50 nM | 
15 | Cc1c(C#N)cc(C(F)F)cc1Oc1c(C(F)(F)C(F)F)ncn(Cc2cc(F)c[nH]c2=O)c1=O [Example 14, 5-(Difluoromethyl)-3-((1-((5-Fluoro-2-Oxo-1,2-Dihydropyridin-3-Yl)Methyl)-6-Oxo-4-(1,1,2,2-Tetrafluoroethyl)-1,6-Dihydropyrimidin-5-Yl)Oxy)-2-Methylbenzonitrile] | 101 nM | 29.5 nM | 
16 | Cc1cc(C)c(Cn2cnc(C(F)(F)C(F)F)c(Oc3cc(Br)cc(C#N)c3)c2=O)c(=O)[nH]1 [Example 7, 3-bromo-5-((1-((4,6-dimethyl-2-oxo-1,2-dihydropyridin-3-yl)methyl)-6-oxo-4-(1,1,2,2-tetrafluoroethyl)-1,6-dihydropyrimidin-5-yl)oxy)benzonitrile] | 433 nM | 29.1 nM | 
17 | CC(F)c1ncn(Cc2ccc(CO)[nH]c2=O)c(=O)c1Oc1cc(Cl)cc(C#N)c1F (single isomer, unassigned) [Example 32, 5-Chloro-2-Fluoro-3-((4-(1-Fluoroethyl)-1-((6-(Hydroxymethyl)-2-Oxo-1,2-Dihydropyridin-3-Yl)Methyl)-6-Oxo-1,6-Dihydropyrimidin-5-Yl)Oxy)Benzonitrile] | 377 nM | 18.2 nM | 
18 | N#Cc1cc(Cl)cc(Oc2c(C(F)(F)C(F)F)ncn(Cc3ccc[nH]c3=O)c2=O)c1Cl [Example 8, 2,5-dichloro-3-((6-oxo-1-((2-oxo-1,2-dihydropyridin-3-yl)methyl)-4-(1,1,2,2-tetrafluoroethyl)-1,6-dihydropyrimidin-5-yl)oxy)benzonitrile] | 495 nM | 26.9 nM | 
19 | Cc1cc(C#N)cc(Oc2c(C(C)(F)F)ncn(Cc3c(C)cc(C)[nH]c3=O)c2=O)c1 [Example 15, 3-((4-(1,1-difluoroethyl)-1-((4,6-dimethyl-2-oxo-1,2-dihydropyridin-3-yl)methyl)-6-oxo-1,6-dihydropyrimidin-5-yl)oxy)-5-methylbenzonitrile] | 384 nM | 21.9 nM | 
20 | Cc1cc(C)c(Cn2cnc(C(F)(F)CF)c(Oc3cc(C(F)F)cc(C#N)c3C)c2=O)c(=O)[nH]1 [Example 41, 5-(difluoromethyl)-3-((1-((4,6-dimethyl-2-oxo-1,2-dihydropyridin-3-yl)methyl)-6-oxo-4-(1,1,2-trifluoroethyl)-1,6-dihydropyrimidin-5-yl)oxy)-2-methylbenzonitrile] | 283 nM | 59.8 nM | 
21 | CC(F)c1ncn(Cc2ccc(CO)[nH]c2=O)c(=O)c1Oc1cc(Cl)cc(C#N)c1F (single isomer, unassigned) [Example 33, 5-Chloro-2-Fluoro-3-((4-(1-Fluoroethyl)-1-((6-(Hydroxymethyl)-2-Oxo-1,2-Dihydropyridin-3-Yl)Methyl)-6-Oxo-1,6-Dihydropyrimidin-5-Yl)Oxy)Benzonitrile] |  | 23.1 nM | 389 nM
22 | N#Cc1cc(Cl)cc(Oc2c(C(F)(F)C(F)F)ncn(Cc3ccc(CO)[nH]c3=O)c2=O)c1F [Example 31, 5-Chloro-2-Fluoro-3-((1-((6-(Hydroxymethyl)-2-Oxo-1,2-Dihydropyridin-3-Yl)Methyl)-6-Oxo-4-(1,1,2,2-Tetrafluoroethyl)-1,6-Dihydropyrimidin-5-Yl)Oxy)Benzonitrile] | 86.8 nM | 20.7 nM | 
23 | Cc1cc(C)c(Cn2cnc(C(F)(F)F)c(Oc3cc(C(F)F)cc(C#N)c3C)c2=O)c(=O)[nH]1 [Example 42, 5-(Difluoromethyl)-3-((1-((4,6-Dimethyl-2-Oxo-1,2-Dihydropyridin-3-Yl)Methyl)-6-Oxo-4-(Trifluoromethyl)-1,6-Dihydropyrimidin-5-Yl)Oxy)-2-Methylbenzonitrile] | 222 nM | 43.1 nM | 
24 | N#Cc1cc(Cl)cc(Oc2c(C(F)(F)C(F)(F)F)ncn(Cc3cc(F)c[nH]c3=O)c2=O)c1F [Example 20, 5-chloro-2-fluoro-3-((1-((5-fluoro-2-oxo-1,2-dihydropyridin-3-yl)methyl)-6-oxo-4-(perfluoroethyl)-1,6-dihydropyrimidin-5-yl)oxy)benzonitrile] | 99 nM | 83.7 nM | 
25 | CC(O)c1ccc(Cn2cnc(C(F)(F)C(F)F)c(Oc3cc(Cl)cc(C#N)c3F)c2=O)c(=O)[nH]1 (single isomer, unassigned) [Example 34] | 270 nM | 43.1 nM | 
26 | Cc1c(C#N)cc(C(F)F)cc1Oc1c(C(F)(F)C(F)F)ncn(Cc2ccc(CCCO)[nH]c2=O)c1=O [Example 28, 5-(difluoromethyl)-3-((1-((6-(3-hydroxypropyl)-2-oxo-1,2-dihydropyridin-3-yl)methyl)-6-oxo-4-(1,1,2,2-tetrafluoroethyl)-1,6-dihydropyrimidin-5-yl)oxy)-2-methylbenzonitrile] | 73.8 nM |  | 
